Where two headings read alike, the source gives them in different places.
Legend:
Experiment in all cases: Kinase panel
Type in all cases: biochemical
SGK(h) = target: T1, SGK(h) (Homo sapiens, UniProt O00141)
T1 construct: purchased Millipore KinaseProfiler
T1 sequence (O00141 1-431): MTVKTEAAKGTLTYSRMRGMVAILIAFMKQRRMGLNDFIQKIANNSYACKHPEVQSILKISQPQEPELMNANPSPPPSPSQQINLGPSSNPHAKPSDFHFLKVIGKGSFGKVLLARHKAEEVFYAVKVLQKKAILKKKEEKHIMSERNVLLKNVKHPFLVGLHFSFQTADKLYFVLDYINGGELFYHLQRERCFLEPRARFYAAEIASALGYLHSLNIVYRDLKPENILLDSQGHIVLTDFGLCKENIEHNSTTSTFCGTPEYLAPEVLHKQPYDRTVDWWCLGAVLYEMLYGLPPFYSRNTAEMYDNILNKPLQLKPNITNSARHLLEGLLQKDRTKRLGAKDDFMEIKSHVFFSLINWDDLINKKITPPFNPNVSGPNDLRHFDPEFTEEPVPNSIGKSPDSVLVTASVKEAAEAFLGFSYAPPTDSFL

DAPK2(h) = target: T2, DAPK2(h) (Homo sapiens, UniProt Q9UIK4)
T2 construct: purchased Millipore KinaseProfiler
T2 sequence (Q9UIK4 whole entry): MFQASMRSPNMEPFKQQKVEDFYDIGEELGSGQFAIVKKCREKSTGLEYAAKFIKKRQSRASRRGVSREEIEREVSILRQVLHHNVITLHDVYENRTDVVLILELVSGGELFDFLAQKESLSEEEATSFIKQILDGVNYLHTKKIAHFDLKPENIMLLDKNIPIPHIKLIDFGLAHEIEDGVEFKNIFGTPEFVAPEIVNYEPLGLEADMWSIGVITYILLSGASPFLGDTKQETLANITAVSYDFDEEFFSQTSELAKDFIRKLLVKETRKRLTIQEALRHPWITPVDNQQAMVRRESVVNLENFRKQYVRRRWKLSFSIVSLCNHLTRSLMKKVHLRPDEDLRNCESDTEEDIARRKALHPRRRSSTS

TAO3(h) = target: T3, TAO3(h) (Homo sapiens, UniProt Q9H2K8)
T3 construct: purchased Millipore KinaseProfiler
T3 sequence (Q9H2K8 1-898): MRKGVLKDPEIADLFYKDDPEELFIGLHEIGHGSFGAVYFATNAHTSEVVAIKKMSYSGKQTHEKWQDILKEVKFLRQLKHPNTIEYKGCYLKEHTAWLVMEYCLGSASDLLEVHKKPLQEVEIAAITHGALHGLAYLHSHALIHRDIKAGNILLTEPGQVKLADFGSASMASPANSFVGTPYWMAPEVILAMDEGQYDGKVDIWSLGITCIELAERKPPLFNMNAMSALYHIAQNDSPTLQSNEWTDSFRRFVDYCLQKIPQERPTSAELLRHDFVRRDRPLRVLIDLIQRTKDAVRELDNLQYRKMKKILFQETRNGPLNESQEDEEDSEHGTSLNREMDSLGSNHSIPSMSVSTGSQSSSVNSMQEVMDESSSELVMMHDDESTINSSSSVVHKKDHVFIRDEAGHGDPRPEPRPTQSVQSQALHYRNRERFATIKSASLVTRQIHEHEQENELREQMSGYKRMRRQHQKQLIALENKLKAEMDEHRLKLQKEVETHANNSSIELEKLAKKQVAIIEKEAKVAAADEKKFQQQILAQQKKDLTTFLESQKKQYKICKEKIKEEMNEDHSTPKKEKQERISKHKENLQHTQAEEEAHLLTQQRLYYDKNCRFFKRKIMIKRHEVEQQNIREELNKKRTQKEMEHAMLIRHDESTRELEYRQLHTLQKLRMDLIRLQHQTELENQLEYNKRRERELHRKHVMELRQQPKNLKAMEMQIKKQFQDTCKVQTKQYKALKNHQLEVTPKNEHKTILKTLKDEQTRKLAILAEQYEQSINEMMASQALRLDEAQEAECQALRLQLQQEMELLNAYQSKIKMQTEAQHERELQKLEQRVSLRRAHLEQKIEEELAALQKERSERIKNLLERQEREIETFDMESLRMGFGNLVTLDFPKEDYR

PKCγ(h) = target: T4, PKCγ(h) (Homo sapiens, UniProt P05129)
T4 construct: purchased Millipore KinaseProfiler

Met(h) = target: T5, Met(h) (Homo sapiens, UniProt P08581)
T5 construct: purchased Millipore KinaseProfiler
T5 sequence (P08581 25-1390): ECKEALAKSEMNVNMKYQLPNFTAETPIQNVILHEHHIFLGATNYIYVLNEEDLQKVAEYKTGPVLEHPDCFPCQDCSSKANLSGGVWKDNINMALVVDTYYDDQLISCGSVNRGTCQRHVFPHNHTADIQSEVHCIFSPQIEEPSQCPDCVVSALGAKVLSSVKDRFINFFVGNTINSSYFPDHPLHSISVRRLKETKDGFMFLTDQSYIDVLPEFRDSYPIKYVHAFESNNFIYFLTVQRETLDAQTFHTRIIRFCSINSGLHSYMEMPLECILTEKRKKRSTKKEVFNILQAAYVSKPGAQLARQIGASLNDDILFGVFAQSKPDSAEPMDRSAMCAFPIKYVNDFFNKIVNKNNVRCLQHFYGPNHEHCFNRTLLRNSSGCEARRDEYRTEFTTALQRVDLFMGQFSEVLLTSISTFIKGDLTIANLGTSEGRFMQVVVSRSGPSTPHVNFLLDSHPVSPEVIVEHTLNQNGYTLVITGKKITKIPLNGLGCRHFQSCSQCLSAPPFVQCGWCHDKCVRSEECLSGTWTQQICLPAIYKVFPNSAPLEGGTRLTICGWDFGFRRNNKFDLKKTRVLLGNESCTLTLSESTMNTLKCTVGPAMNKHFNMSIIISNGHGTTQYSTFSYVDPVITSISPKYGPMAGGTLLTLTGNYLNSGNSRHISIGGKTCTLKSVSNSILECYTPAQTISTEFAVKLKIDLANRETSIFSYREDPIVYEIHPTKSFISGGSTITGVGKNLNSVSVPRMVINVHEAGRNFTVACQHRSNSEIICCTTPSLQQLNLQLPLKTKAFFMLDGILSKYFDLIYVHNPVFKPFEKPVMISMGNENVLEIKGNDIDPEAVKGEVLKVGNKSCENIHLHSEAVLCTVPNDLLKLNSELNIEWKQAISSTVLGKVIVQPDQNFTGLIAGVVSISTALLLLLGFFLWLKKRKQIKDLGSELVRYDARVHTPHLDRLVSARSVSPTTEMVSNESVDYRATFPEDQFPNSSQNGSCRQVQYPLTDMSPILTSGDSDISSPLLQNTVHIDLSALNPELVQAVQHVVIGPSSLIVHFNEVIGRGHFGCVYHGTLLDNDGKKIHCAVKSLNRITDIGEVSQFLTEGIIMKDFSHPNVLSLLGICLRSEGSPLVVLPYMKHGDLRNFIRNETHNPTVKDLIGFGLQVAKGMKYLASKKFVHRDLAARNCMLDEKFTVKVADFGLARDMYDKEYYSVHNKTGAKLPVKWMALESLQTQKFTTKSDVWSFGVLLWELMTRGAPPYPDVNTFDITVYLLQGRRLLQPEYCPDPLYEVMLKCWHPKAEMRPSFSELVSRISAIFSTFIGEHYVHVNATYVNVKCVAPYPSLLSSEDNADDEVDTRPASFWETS

cSRC(h) = target: T6, cSRC(h) (Homo sapiens, UniProt P12931)
T6 construct: purchased Millipore KinaseProfiler
T6 sequence (P12931 whole entry): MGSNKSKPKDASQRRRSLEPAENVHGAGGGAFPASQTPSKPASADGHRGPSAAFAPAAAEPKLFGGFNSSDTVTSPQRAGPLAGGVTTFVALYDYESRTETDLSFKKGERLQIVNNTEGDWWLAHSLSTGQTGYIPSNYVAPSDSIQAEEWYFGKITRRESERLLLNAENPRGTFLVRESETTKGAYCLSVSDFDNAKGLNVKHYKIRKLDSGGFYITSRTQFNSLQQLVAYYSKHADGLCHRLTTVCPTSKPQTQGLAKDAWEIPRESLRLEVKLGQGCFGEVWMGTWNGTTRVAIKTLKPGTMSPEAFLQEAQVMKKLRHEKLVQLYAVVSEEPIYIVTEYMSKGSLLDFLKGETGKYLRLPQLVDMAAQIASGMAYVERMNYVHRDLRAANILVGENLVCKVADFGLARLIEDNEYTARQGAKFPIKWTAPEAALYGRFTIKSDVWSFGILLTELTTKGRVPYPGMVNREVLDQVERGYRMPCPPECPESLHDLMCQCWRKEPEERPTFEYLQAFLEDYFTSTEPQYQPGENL

GRK6(h) = target: T7, GRK6(h) (Homo sapiens, UniProt P43250)
T7 construct: purchased Millipore KinaseProfiler
T7 sequence (P43250 whole entry): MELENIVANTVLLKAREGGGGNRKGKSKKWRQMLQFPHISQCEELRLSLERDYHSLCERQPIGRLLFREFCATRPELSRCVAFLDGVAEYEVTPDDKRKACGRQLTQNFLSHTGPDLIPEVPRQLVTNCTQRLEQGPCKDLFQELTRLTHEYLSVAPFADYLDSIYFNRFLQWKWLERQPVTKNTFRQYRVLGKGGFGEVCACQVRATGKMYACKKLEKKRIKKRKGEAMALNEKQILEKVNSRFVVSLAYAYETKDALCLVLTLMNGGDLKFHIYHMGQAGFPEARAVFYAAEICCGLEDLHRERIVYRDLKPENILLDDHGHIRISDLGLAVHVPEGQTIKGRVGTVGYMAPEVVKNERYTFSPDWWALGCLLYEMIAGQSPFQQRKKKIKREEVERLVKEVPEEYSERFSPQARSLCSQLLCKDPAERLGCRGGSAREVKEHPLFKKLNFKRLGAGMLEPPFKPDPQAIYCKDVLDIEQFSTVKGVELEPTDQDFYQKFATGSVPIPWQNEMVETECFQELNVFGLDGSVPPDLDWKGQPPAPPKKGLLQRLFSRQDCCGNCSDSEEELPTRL

FGFR4(h) = target: T8, FGFR4(h) (Homo sapiens, UniProt P22455)
T8 construct: purchased Millipore KinaseProfiler
T8 sequence (P22455 22-802): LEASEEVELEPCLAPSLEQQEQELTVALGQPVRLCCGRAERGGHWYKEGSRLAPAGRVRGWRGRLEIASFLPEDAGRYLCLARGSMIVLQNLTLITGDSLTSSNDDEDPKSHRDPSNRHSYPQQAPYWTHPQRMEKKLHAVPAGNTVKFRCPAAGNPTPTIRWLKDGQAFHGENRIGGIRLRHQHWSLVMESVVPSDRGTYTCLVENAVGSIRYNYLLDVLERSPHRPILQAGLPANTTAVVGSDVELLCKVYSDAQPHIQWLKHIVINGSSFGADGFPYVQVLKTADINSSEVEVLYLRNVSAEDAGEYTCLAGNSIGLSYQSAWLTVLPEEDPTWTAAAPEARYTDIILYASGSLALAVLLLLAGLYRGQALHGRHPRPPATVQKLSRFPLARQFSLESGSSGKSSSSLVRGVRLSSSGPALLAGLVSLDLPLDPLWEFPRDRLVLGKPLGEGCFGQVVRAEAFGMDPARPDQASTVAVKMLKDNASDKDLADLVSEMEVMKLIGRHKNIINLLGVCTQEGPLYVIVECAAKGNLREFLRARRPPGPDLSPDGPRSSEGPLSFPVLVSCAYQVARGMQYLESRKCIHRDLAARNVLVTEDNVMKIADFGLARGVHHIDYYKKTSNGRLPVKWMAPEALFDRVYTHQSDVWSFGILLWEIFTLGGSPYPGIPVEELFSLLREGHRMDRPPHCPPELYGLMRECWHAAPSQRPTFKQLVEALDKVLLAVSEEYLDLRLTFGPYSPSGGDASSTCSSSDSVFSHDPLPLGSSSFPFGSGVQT

JAK3(h) = target: T9, JAK3(h) (Homo sapiens, UniProt P52333)
T9 construct: purchased Millipore KinaseProfiler
T9 sequence (P52333 1-1124): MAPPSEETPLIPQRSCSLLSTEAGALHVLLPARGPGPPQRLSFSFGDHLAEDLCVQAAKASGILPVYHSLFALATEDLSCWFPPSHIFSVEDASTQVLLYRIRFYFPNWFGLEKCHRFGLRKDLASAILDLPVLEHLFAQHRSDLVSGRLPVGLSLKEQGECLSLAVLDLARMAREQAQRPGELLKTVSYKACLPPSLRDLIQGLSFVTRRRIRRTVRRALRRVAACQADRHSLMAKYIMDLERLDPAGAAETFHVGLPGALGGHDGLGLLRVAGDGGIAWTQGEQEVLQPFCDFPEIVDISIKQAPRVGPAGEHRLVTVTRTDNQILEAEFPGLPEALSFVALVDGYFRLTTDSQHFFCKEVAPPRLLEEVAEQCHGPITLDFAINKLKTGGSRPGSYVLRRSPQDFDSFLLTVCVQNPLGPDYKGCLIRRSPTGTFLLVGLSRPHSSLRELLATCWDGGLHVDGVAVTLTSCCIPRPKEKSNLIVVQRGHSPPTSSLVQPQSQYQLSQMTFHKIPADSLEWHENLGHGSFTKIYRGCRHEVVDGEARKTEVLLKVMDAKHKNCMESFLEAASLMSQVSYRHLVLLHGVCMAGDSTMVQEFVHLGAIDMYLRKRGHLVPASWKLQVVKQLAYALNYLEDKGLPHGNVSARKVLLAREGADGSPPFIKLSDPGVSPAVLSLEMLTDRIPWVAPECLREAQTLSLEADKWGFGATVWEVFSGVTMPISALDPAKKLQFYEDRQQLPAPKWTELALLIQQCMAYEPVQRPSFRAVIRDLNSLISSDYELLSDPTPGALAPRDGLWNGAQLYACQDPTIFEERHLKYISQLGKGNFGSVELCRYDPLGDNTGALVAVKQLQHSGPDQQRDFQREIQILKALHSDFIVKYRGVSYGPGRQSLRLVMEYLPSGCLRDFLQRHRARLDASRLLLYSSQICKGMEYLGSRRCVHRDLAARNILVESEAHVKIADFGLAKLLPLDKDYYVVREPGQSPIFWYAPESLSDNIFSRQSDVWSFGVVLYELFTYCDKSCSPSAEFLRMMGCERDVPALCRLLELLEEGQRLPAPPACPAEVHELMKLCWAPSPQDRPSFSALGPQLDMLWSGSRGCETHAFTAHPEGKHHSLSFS

Cn1ncc(Cl)c1-c1cc(C(=O)N[C@H](CN)Cc2cccc(F)c2)sc1Cl [GSK2110183]
inhibition at 0.5 µM (SGK(h)): 36% | inhibition at 10 µM (SGK(h)): 87% | inhibition at 0.5 µM (DAPK2(h)): -1% | inhibition at 10 µM (DAPK2(h)): 37% | inhibition at 0.5 µM (TAO3(h)): -2% | inhibition at 10 µM (TAO3(h)): 24% | inhibition at 0.5 µM (PKCγ(h)): 39% | inhibition at 10 µM (PKCγ(h)): 90% | inhibition at 0.5 µM (Met(h)): -7% | inhibition at 10 µM (Met(h)): 11% | inhibition at 0.5 µM (cSRC(h)): -1% | inhibition at 10 µM (cSRC(h)): 22% | inhibition at 0.5 µM (GRK6(h)): -8% | inhibition at 10 µM (GRK6(h)): 10% | inhibition at 0.5 µM (FGFR4(h)): 0% | inhibition at 10 µM (FGFR4(h)): 19% | inhibition at 0.5 µM (JAK3(h)): 6% | inhibition at 10 µM (JAK3(h)): -3%

Cn1ncc(Cl)c1-c1cc(C(=O)N[C@H](CN)Cc2ccc(F)c(F)c2)oc1Cl [GSK2141795]
inhibition at 0.5 µM (SGK(h); 0.5 µM, read-out: % Inhibition): 47% | inhibition at 10 µM (SGK(h); 10 µM, read-out: % Inhibition): 90% | inhibition at 0.5 µM (DAPK2(h); 0.5 µM, read-out: % Inhibition): -10% | inhibition at 10 µM (DAPK2(h); 10 µM, read-out: % Inhibition): 58% | inhibition at 0.5 µM (TAO3(h); 0.5 µM, read-out: % Inhibition): -16% | inhibition at 10 µM (TAO3(h); 10 µM, read-out: % Inhibition): -4% | inhibition at 0.5 µM (PKCγ(h); 0.5 µM, read-out: % Inhibition): 63% | inhibition at 10 µM (PKCγ(h); 10 µM, read-out: % Inhibition): 95% | inhibition at 0.5 µM (Met(h); 0.5 µM, read-out: % Inhibition): -28% | inhibition at 10 µM (Met(h); 10 µM, read-out: % Inhibition): -6% | inhibition at 0.5 µM (cSRC(h); 0.5 µM, read-out: % Inhibition): -6% | inhibition at 10 µM (cSRC(h); 10 µM, read-out: % Inhibition): 49% | inhibition at 0.5 µM (GRK6(h); 0.5 µM, read-out: % Inhibition): -16% | inhibition at 10 µM (GRK6(h); 10 µM, read-out: % Inhibition): 26% | inhibition at 0.5 µM (FGFR4(h); 0.5 µM, read-out: % Inhibition): 24% | inhibition at 10 µM (FGFR4(h); 10 µM, read-out: % Inhibition): 19% | inhibition at 0.5 µM (JAK3(h); 0.5 µM, read-out: % Inhibition): -6% | inhibition at 10 µM (JAK3(h); 10 µM, read-out: % Inhibition): -14%

Source: paper PMC4076210, “Discovery of Novel AKT Inhibitors with Enhanced Anti-Tumor Effects in Combination with the MEK Inhibitor” (PLoS ONE, 2014)
